According to patent publication US8871463B2, “Method for screening a glutamate release inhibitor in an astrocyte” (Korea Institute of Science and Technology, priority 2012, dated 2014):
Entries after “also recorded” stand apart in the source; their conditions may differ.

Legend:
[1] = tested on: primary cultured astrocyte; type: cell-based, mouse
[2] = tested on: astrocyte; test: Fura-2 Ca2+ imaging of astrocyte during sniffer patch; type: cell-based, mouse; conditions: TFLLR 500 μM, 100 ms
Description: On the day of sniffer-patch, cultured astrocytes (HEK cells added) were incubated with 5 μM Fura-2 AM (mixed with 5 μl of 20% Pluronic acid) (Invitrogen) for 40 min and washed at room temperature, and subsequently transferred to a microscope stage for imaging. External solution contained (in mM): 150 NaCl, 10 Hepes, 3 KCl, 2 CaCl2, 2 MgCl2, 5.5 glucose, pH adjusted to pH 7.3 and osmolarity to 325 mOsmol kg^−1. Intensity images of 510 nm wavelength were taken at 340 nm and 380 nm excitation wavelengths using either iXon EMCCD (DV887 DCS-BV, ANDOR technology). Two resulting images were used for ratio calculations in Axon Imaging Workbench version 6.2 (Axon Instruments). GluR1LY-mediated currents were recorded from HEK cells expressing GluR1L497Y under voltage clamp (Vh=−70 mV) using Multiclamp 700B amplifier (Molecular Devices), acquired with pClamp 9.2. Recording electrodes […] were filled with (mM): 110 Cs-Gluconate, 30 CsCl, 0.5 CaCl2, 10 Hepes, 4 Mg-ATP, 0.3 Na3-GTP and 10 BAPTA (pH adjusted to 7.3 with CsOH and osmolarity adjusted to 290-310 mOsm/kg with sucrose). For simultaneous recording, Imaging Workbench was synchronized with pClamp 9.2.

## C=C[C@H]1C[N@@]2CC[C@H]1C[C@H]2[C@H](O)c1ccnc2ccc(OC)cc12 [quinine]
[1]
  fast and slow-modes of TFLLR-induced glutamate release (TFLLR-induced GluR1L497Y-mediated current): inhibit; also recorded: blocked

## CCCCC1(C2CCCC2)Cc2cc(OCCCC(=O)O)c(Cl)c(Cl)c2C1=O (centres unmarked) [DCPIB, 4-(2-butyl-6,7-dichloro-2-cyclopentylindan-1-on-5-yl)oxybutyric acid]
[1]
  fast and slow-modes of TFLLR-induced glutamate release (TFLLR-induced GluR1L497Y-mediated current): did not show any significant effect

## CC[N+](CC)(CC)CC [TEA]
[1]
  fast and slow-modes of TFLLR-induced glutamate release (TFLLR-induced GluR1L497Y-mediated current): did not show any significant effect

## CC1(C)[C@@H](OC(=O)CCC(=O)O)CC[C@]2(C)[C@H]3C(=O)C=C4[C@@H]5C[C@@](C)(C(=O)O)CC[C@]5(C)CC[C@@]4(C)[C@]3(C)CC[C@@H]12 [CBX, Carbenoxolone]
[1]
  fast and slow-modes of TFLLR-induced glutamate release (TFLLR-induced GluR1L497Y-mediated current): does not inhibit; also recorded: did not show any significant effect

## C-terminus of Phosducin: C-terminus of mouse phosducin (251-278 a.a., SEQ ID NO: 6), over-expressed; inhibits Gαi-Gβγ dissociation
[2]
  TFLLR-induced astrocytic Ca2+ transient: without affecting
[2]; listed as Phosducin C-terminal fragment
  TFLLR-induced astrocytic Ca2+ transient: do not inhibit
[1]
  fast-mode of TFLLR-induced glutamate release: almost completely inhibited; also recorded: inhibition of the fast-mode

## CC(C)Cn1c(=O)n(C)c(=O)c2[nH]cnc21 [IBMX, 3-isobutyl-1-methylxanthine]
[1]
  fast-mode of TFLLR-induced glutamate release: does not affect

## CC(=O)OCOC(=O)CN(CC(=O)OCOC(C)=O)c1ccccc1OCCOc1ccccc1N(CC(=O)OCOC(C)=O)CC(=O)OCOC(C)=O [BAPTA-AM, 1,2-bis-(o-inophenoxy)ethane-N,N,N′,N′-tetraacetic Acid Tetra-(acetoxymethyl) Ester]
[2]
  TFLLR-induced astrocytic Ca2+ transient: completely block; also recorded: eliminated
[1]
  slow-mode of TFLLR-induced glutamate release: significantly reduced

## O=S(=O)(O)c1cc(N=C=S)ccc1C=Cc1ccc(N=C=S)cc1S(=O)(=O)O [DIDS, 4,4′-Diisothiocyano-2,2′-stilbenedisulfonic acid]
[1]
  fast and slow-modes of TFLLR-induced glutamate release (TFLLR-induced GluR1L497Y-mediated current): inhibit; also recorded: blocked

## O=C(O)c1cc([N+](=O)[O-])ccc1NCCCc1ccccc1 [NPPB, 5-Nitro-2-(3-phenylpropylamino)benzoic Acid]
[1]
  fast and slow-modes of TFLLR-induced glutamate release (TFLLR-induced GluR1L497Y-mediated current): blocked

## [Cs+] [Cs^+]
[1]
  fast and slow-modes of TFLLR-induced glutamate release (TFLLR-induced GluR1L497Y-mediated current): did not show any significant effect

## β-ARK-c term: C-terminus of Beta-adrenergic receptor kinase (SEQ ID NO: 5), over-expressed; inhibits Gβγ dissociation (WKKELRDAYREAQQLVQRVPKMKNKPRSVQRVPKMKNKPRS; B-Ark(Beta-adrenergic receptor kinase) C-terminus)
[2]
  TFLLR-induced astrocytic Ca2+ transient: do not inhibit
[2]; listed as […]-ARK
  TFLLR-induced astrocytic Ca2+ transient: without affecting

## [Ba+2] [Ba^2+]
[1]
  fast and slow-modes of TFLLR-induced glutamate release (TFLLR-induced GluR1L497Y-mediated current): did not show any significant effect

## N#Cc1cc2c(cc1[N+](=O)[O-])=NC(=O)C(=O)N=2 [CNQX, 6-cyano-7-nitroquinoxaline-2,3-dione]
[1]
  fast and slow-modes of TFLLR-induced glutamate release (TFLLR-induced GluR1L497Y-mediated current): blocked
  fast-mode of TFLLR-induced glutamate release: blocked
  slow-mode of TFLLR-induced glutamate release: blocked

B1: RGS-2: Regulatory G protein signaling 2, over-expressed; selectively inhibits the Gq subunit (protein, UniProt P41220 1-211, looked up)
Regulator of G-protein …: MQSAMFLAVQHDCRPMDKSAGSGHKSEEKREKMKRTLLKDWKTRLSYFLQNSSTPGKPKTGKKSKQQAFIKPSPEEAQLWSEAFDELLASKYGLAAFRAFLKSEFCEENIEFWLACEDFKKTKSPQKLSSKARKIYTDFIEKEAPKEINIDFQTKTLIAQNIQEATSGCFTTAQKRVYSLMENNSYPRFLESEFYQDLCKKPQITTEPHAT
[2]
  TFLLR-induced astrocytic Ca2+ transient: greatly and significantly reduced; also recorded: selectively and significantly inhibited
